Consider 23 molecules from ChEMBL document CHEMBL1156873 (Bioorg Med Chem Lett, 2010).

Data set [1] has as its target Serine/threonine-protein kinase mTOR (Homo sapiens, UniProt P42345). Description: Inhibition of mTOR.
Data set [2] is described as follows: Half life in human microsomes. It counts as ADME, Microsome.
Data set [3] is described as follows: Half life in nude mouse microsomes. It counts as ADME, Microsome.
Another data set concerns LNCaP. In words: Cytotoxicity against human LNCAP cells. In kind it is functional, cell-based.
The subject of data set [4] is Mus musculus. Description: Inhibition of mTOR in nude mouse bearing human MDA-MB-361 cells assessed as reduction of phosphorylated S6K (T389) level at 25 mg/kg, iv after 8 hrs. In kind it is functional, organism-based. The arrangement: dose 25 mg/kg.
Data set [5] has as its system MDA-MB-361. In words: Antitumor activity against human MDA-MB-361 cells xenografted in nude mouse assessed as inhibition of tumor growth at 10 mg/kg, po daily once for 5 days measured up to 17 days. It counts as functional, organism-based. The arrangement: dose 10 mg/kg.
Data set [6] concerns MDA-MB-361. Description: Antitumor activity against human MDA-MB-361 cells xenografted in nude mouse assessed as inhibition of tumor growth at 20 mg/kg, po daily once for 5 days measured up to 17 days. In kind it is functional, organism-based. More on the design: dose 20 mg/kg. On the technique in general: A xenograft is tissue or cells of one species grown in another, often human tumour cells in immunodeficient mice.

Data set [7] relates to Mus musculus. In words: Inhibition of mTOR in nude mouse bearing human MDA-MB-361 cells assessed as reduction of phosphorylated AKT (S473) level at 25 mg/kg, iv after 8 hrs. The arrangement: dose 25 mg/kg. It counts as functional, organism-based.
Data set [8] relates to Mus musculus. Description: Inhibition of mTOR in nude mouse bearing human MDA-MB-361 cells assessed as reduction of phosphorylated S6 (S240/244) level at 25 mg/kg, iv after 8 hrs. It counts as functional, organism-based. The arrangement: dose 25 mg/kg.
Data set [9] deals with Mus musculus. Description: Toxicity in nude mouse assessed as body weight change at 10 mg/kg, po daily once for 5 days. In kind it is organism-based. More on the design: dose 10 mg/kg, route oral. The settings on record: in vivo, 120 h.
In data set [10] the test system is Mus musculus. In words: Toxicity in nude mouse assessed as body weight change at 20 mg/kg, po daily once for 5 days. The arrangement: dose 20 mg/kg, route oral. It counts as organism-based. The settings on record: in vivo, 120 h.

Calls of active or inactive are those of the source. The rule behind the calls is not given here.

By IC50 is commonly meant the point on the concentration scale where inhibition reaches its midpoint. What is called half-life is the time in which the quantity being followed falls by half. Low values mean rapid decline, high ones slow decline.

On to `O=C(Nc1ccc(-c2nc(N3CC4CCC(C3)O4)c3cnn(C4CCC5(CC4)OCCO5)c3n2)cc1)Nc1cccnc1`, for which the IC50 was determined as 0.12 nM in [1] and 1 nM in the data set on LNCaP. Moreover, the half-life in [2] was 13 min; in data set [3] it was greater than 30 min.
For `CNC(=O)Nc1ccc(-c2nc(N3CC4CCC(C3)O4)c3cnn(C4CCC(OC)(OC)CC4)c3n2)cc1`, the half-life in [2] worked out at 30 min; in data set [3], 15 min. This molecule also showed a 50% inhibitory concentration (IC50) in the data set with LNCaP of 2 nM.
On the same counts, the results for `CNC(=O)Nc1ccc(-c2nc(N3CC4CCC(C3)O4)c3cnn(CC(F)(F)F)c3n2)cc1` are 5 min, greater than 30 min and 38 nM.
In the case of `CNC(=O)Nc1ccc(-c2nc(N3CC4CCC(C3)O4)c3cnn(C4CCC(=O)CC4)c3n2)cc1`, the half-life came out at 10 min in data set [2] and 20 min in data set [3]. For the same molecule, in the data set with LNCaP, the concentration for half-maximal inhibition (IC50) was 32 nM.
Turning to `O=C(Nc1ccccc1)Nc1ccc(-c2nc(N3CC4CCC(C3)O4)c3cnn(C4CCC5(CC4)OCCO5)c3n2)cc1`, the values for the IC50 (in [1]; in the data set on LNCaP) were 0.16 nM and 4 nM, respectively. In addition, the half-life in [2] was 13 min; in data set [3], greater than 30 min.
For `CNC(=O)Nc1ccc(-c2nc(N3CC4CCC(C3)O4)c3cnn(C)c3n2)cc1`, the results for the IC50 (in [1]; in the data set on LNCaP) were 1.34 nM and 170 nM, respectively. For the same molecule, the half-life in [3] is greater than 30 min.
Consider `CCNC(=O)Nc1ccc(-c2nc(N3CC4CCC(C3)O4)c3cnn(C4CCC5(CC4)OCCO5)c3n2)cc1`, for which the half-life in data set [2] is 10 min; in data set [3], 27 min. In the data set with LNCaP, this molecule yielded an IC50 of 1 nM.
`CNC(=O)Nc1ccc(-c2nc(N3CC4CCC(C3)O4)c3cnn(C4CCN(C(=O)OC)CC4)c3n2)cc1` gave a half-life in data set [3] greater than 30 min. Moreover, in the data set on LNCaP, the IC50 amounted to 26 nM.
For the molecule `CNC(=O)Nc1ccc(-c2nc(N3CC4CCC(C3)O4)c3cnn(CCN(C)C)c3n2)cc1`, in data set [3], the half-life came out at 5 min. In the data set on LNCaP, this molecule displayed an IC50 of 400 nM.
Turning to `CNC(=O)Nc1ccc(-c2nc(N3CC4CCC(C3)O4)c3cnn(C4CCC5(CC4)OCCO5)c3n2)cc1`, the result in the data set on Mus musculus [4], with MDA-MB-361 [5], in the data set with MDA-MB-361 [6], in the data set with Mus musculus [7] and in the data set with Mus musculus [8] was Active. In addition, the half-life in data set [2] is 26 min; in [3] it was greater than 30 min. Further, in the data set with LNCaP, the IC50 is 2 nM. Moreover, the Activity entry in the data set with Mus musculus [9] and in the data set on Mus musculus [10] was “Non-toxic” throughout.
In the data set on LNCaP, `CNC(=O)Nc1ccc(-c2nc(N3CC4CCC(C3)O4)c3cnn(CCO)c3n2)cc1` returned an IC50 of 650 nM.
`CNC(=O)Nc1ccc(-c2nc(N3CC4CCC(C3)O4)c3cnn([C@H]4CC[C@@H](OC)CC4)c3n2)cc1` showed a half-life in [3] of 17 min. It took 1 nM to reach half-maximal inhibition in the data set on LNCaP (IC50).
Consider `O=C(Nc1ccc(-c2nc(N3CC4CCC(C3)O4)c3cnn(C4CCC5(CC4)OCCO5)c3n2)cc1)NC1CC1`, for which the half-life in [2] is 9 min; in [3] it was 25 min. In the data set on LNCaP, the midpoint of inhibition, the IC50, lay at 2 nM.
Take `O=C(Nc1ccncc1)Nc1ccc(-c2nc(N3CC4CCC(C3)O4)c3cnn(C4CCC5(CC4)OCCO5)c3n2)cc1`: the IC50 is 0.12 nM in data set [1] and 1 nM in the data set on LNCaP. Also, the half-life in [2] is 13 min; in data set [3], greater than 30 min.
Consider `CNC(=O)Nc1ccc(-c2nc(N3CC4CCC(C3)O4)c3cnn(C4CCN(C(=O)OC(C)(C)C)CC4)c3n2)cc1`, for which the IC50 in data set [1] was 0.26 nM; in the data set on LNCaP, 27 nM. Moreover, the half-life in data set [3] was determined as 11 min.
For `CNC(=O)Nc1ccc(-c2nc(N3CC4CCC(C3)O4)c3cnn([C@H]4CC[C@H](OC)CC4)c3n2)cc1`, the IC50 in [1] turned out to be 0.38 nM; with LNCaP, 2 nM. Further, the half-life was 15 min in data set [2] and greater than 30 min in [3].
As to `CNC(=O)Nc1ccc(-c2nc(N3CC4CCC(C3)O4)c3cnn(C(C)C)c3n2)cc1`, the IC50 turned out to be 0.12 nM in data set [1] and 5 nM with LNCaP. The half-life in [2] was 12 min; in data set [3], greater than 30 min.
On the same counts, the results for `O=C(NCCF)Nc1ccc(-c2nc(N3CC4CCC(C3)O4)c3cnn(C4CCC5(CC4)OCCO5)c3n2)cc1` are 0.22 nM, 1 nM, 16 min and greater than 30 min.
Take `CNC(=O)Nc1ccc(-c2nc(N3CC4CCC(C3)O4)c3cnn(C4CCN(C(=O)OC(C)C)CC4)c3n2)cc1`: the figures for the half-maximal inhibitory concentration (IC50) (in data set [1]; in the data set on LNCaP) were 0.19 nM and 6 nM, respectively. This molecule also returned a half-life in data set [3] of 21 min.
Regarding `CNC(=O)Nc1ccc(-c2nc(N3CC4CCC(C3)O4)c3cnn([C@H]4CC[C@H](O)CC4)c3n2)cc1`, the IC50 in data set [1] is 0.24 nM; in the data set on LNCaP, 20 nM. The half-life in [2] and in data set [3] was greater than 30 min throughout.
Turning to `CNC(=O)Nc1ccc(-c2nc(N3CC4CCC(C3)O4)c3cnn([C@H]4CC[C@@H](O)CC4)c3n2)cc1`, the 50% inhibitory concentration (IC50) in [1] is 0.3 nM; in the data set with LNCaP, 20 nM. In addition, the half-life in [2] and in data set [3] was greater than 30 min throughout.
With `CCn1ncc2c(N3CC4CCC(C3)O4)nc(-c3ccc(NC(=O)NC)cc3)nc21`, the figures for the IC50 (in data set [1]; in the data set on LNCaP) were 0.74 nM and 70 nM, respectively. In data set [3], the half-life was greater than 30 min.
Regarding `CNC(=O)Nc1ccc(-c2nc(N3CC4CCC(C3)O4)c3cnn(C4CCC5(CC4)OCCCO5)c3n2)cc1`, the half-life in data set [2] and in [3] was greater than 30 min in each case. It took 8 nM to reach half-maximal inhibition in the data set with LNCaP (IC50).
